Results taken from US4026888A, “Certain derivatives of particular 3-thiolated cephalosporins” (priority 1976, dated 1977).
Converted amounts (≈) assume the structure as drawn. Read-outs that look alike come from different tables or passages of the source.

Legend:
[1] = Mouse blood levels after oral administration; type: in vivo; details: mouse, blood, po, 100 mg/kg, Example 3, PO 100 mg./kg., Tween-CMC, average of two experiments, read-out: Blood Levels
Description: Mouse Blood Levels After Oral
Administration Of 100 mg./kg. Body Weight
The compounds were prepared in
Tween - carboxymethylcellulose
and 8 mice were used for each
Mouse Blood Levels After PO
Administration of 100 mg./kg. Body Weight
The compounds were prepared in Tween-CMC. BL-S640
The compounds were prepared in Tween-CMC. Values are the average of two

[2] = Urinary recovery after IM administration to rats; type: in vivo; details: rat, urine, 50 mg/kg, IM 50 mg./kg., read-out: Urinary Recovery, Percentage of Administered Dose Recovered
Description: Urinary Recovery After IM
Administration of 50 and 10 mg./kg. to Rats
The compounds were prepared in 0.01% phosphate buffer. BL-S640 was used as
Urinary Recovery after IM
Administration of 50 mg./kg. to Rats
(§1) The compounds were prepared in 0.01% phosphate buffer.

[3] = Paper chromatography of rat urine for antibiotically active metabolites; type: in vivo; details: IM; rat urine 0-2 and 2-4 hours
Description: Paper chromatograms were run on rat urine collected between 0 and 2 and between 2 and 4 hours following IM administration of BL-S1055 and 640, for the detection of antibiotically active metabolites using descending chromatography with system No. 9 (butyl acetate:n-butanol:glacial acetic acid:H2 O= 80:15:40:24).

[4] = Mouse blood levels after intramuscular administration; type: in vivo; details: mouse, blood, im, 10 mg/kg, Example 3, IM 10 mg./kg., average of 3 experiments, read-out: Blood Levels
Description: Mouse Blood Levels After Intramuscular Administration
of 10 mg./kg. Body Weight
The compounds were dissolved in 0.01% phosphate buffer.
Mouse Blood Levels After IM
Administration of 10 mg./kg. Body Weight
The compounds were prepared in 0.01% phosphate
as §1

[5] = test system: P. mirabilis A9900; experiment: IM PD50 in mice; type: in vivo; details: Proteus mirabilis
Text: Comparative IM PD50 Values of
BL-S640 Derivatives in Mice

[6] = test system: Str. pyogenes A9604; experiment: Antibiotic activity in nutrient broth (MIC); type: cell-based; details: Streptococcus pyogenes, A9604, inoculum 10^-3; 45% AAB + 5% serum + 50% broth; derivatives adjusted for BL-S640 content; read-out: MIC
Text: (§2) Antibiotic Activity In Nutrient Broth
(§3) * 45% AAB+ 5% serum+ 50% broth listed above.
(§4) ** Dilution of overnight broth culture.
(§5) Antibiotic Spectrum Nutrient Broth
(§6) * 45% AAB + 5% serum + 50% broth
(§7) Antibiotic Spectrum in Nutrient Broth
(§8) *45% AAB + 5% serum + 50% broth listed above.

[7] = test system: Str. pneumoniae A9585; experiment: Antibiotic activity in nutrient broth (MIC); type: cell-based; details: Streptococcus pneumoniae, A9585, inoculum 10^-3 dilution of overnight broth culture; 45% AAB + 5% serum + 50% broth; derivatives adjusted for BL-S640 content
Text: as §2, §3, §4, §5, §6, §7, §8

[8] = test system: Ent. cloacae A9659; experiment: Antibiotic activity in nutrient broth (MIC); type: cell-based; details: Enterobacter cloacae, A9659, inoculum 10^-4; derivatives adjusted for BL-S640 content; read-out: MIC
Text: as §2, §4, §5, §7

[9] = test system: Ent. cloacae A9657; experiment: Antibiotic activity in nutrient broth (MIC); type: cell-based; details: Enterobacter cloacae, A9657, inoculum 10^-4; derivatives adjusted for BL-S640 content; read-out: MIC
Text: as §2, §4, §5, §7

[10] = test system: Sal. enteritidis A9531; experiment: Antibiotic activity in nutrient broth (MIC); type: cell-based; details: Salmonella enterica, ENTERITIDIS, inoculum 10^-4; derivatives adjusted for BL-S640 content; read-out: MIC
Text: as §2, §4, §5, §7

[11] = test system: K. pneumoniae A9977; experiment: Antibiotic activity in nutrient broth (MIC); type: cell-based; details: Klebsiella pneumoniae, inoculum 10^-4, derivatives adjusted for BL-S640 content, read-out: MIC
Text: as §2, §4, §5, §7

[12] = test system: S. aureus BX1633 A9606; experiment: Antibiotic activity in nutrient broth (MIC); type: cell-based; details: Staphylococcus aureus, derivatives adjusted for BL-S640 content, read-out: MIC
Text: as §2, §4, §5, §7

[13] = test system: Ser. marcescens A20019; experiment: Antibiotic activity in nutrient broth (MIC); type: cell-based; details: Serratia marcescens, A20019, inoculum 10^-4; derivatives adjusted for BL-S640 content
Text: as §2, §4, §5, §7

[14] = test system: Ent. cloacae A9656; experiment: Antibiotic activity in nutrient broth (MIC); type: cell-based; details: Enterobacter cloacae, A9656, inoculum 10^-4; derivatives adjusted for BL-S640 content
Text: as §2, §4, §5, §7

[15] = test system: Pr. morganii A15153; experiment: Antibiotic activity in nutrient broth (MIC); type: cell-based; details: Morganella morganii, A15153, inoculum 10^-4; derivatives adjusted for BL-S640 content; read-out: MIC
Text: as §2, §4, §5, §7

[16] = test system: Ps. aeruginosa A9843A; experiment: Antibiotic activity in nutrient broth (MIC); type: cell-based; details: Pseudomonas aeruginosa
Text: as §2, §4, §5, §7

[17] = test system: S. aureus Meth-Res A15097; experiment: Antibiotic activity in nutrient broth (MIC); type: cell-based; details: Staphylococcus aureus, inoculum 10^-3; Meth-Res; derivatives adjusted for BL-S640 content; read-out: MIC
Text: as §2, §4, §5, §7

[18] = test system: E. coli Juhl A15119; experiment: Antibiotic activity in nutrient broth (MIC); type: cell-based; details: Escherichia coli, JUHLA15119, inoculum 10^-4; derivatives adjusted for BL-S640 content; read-out: MIC
Text: as §2, §4, §5, §7

[19] = test system: Pr. mirabilis A9900; experiment: Antibiotic activity in nutrient broth (MIC); type: cell-based; details: Proteus mirabilis, inoculum 10^-4, derivatives adjusted for BL-S640 content
Text: as §2, §4, §5, §7

[20] = test system: K. pneumoniae A15130; experiment: Antibiotic activity in nutrient broth (MIC); type: cell-based; details: Klebsiella pneumoniae, A15130, inoculum 10^-4; derivatives adjusted for BL-S640 content; read-out: MIC
Text: as §2, §4, §5, §7

[21] = 0 min
Description: Paper strip bioautographs were run in the following manner. Samples were dissolved at a concentration of 500 γ/ml. in 0.1M pH 7 phosphate buffer and pH 7 pooled human serum at 500 γ/ml. A 10 μl sample of BL-S640 and the above product were spotted on a 1/2 inch strip of What. No. 1 paper and developed at 27° for 16 hours in a butyl acetate 80, n-butanol 15, acetic acid 40, and water 24 system. The strips were air-dried, and placed on an agar plate seeded with B. subtilis A.T.C.C.
Samples were chromatographed on a μ Bondapak C18 (Waters Associates) column using a 0.01M sodium acetate pH 4/-methanol 8/2 mobile phase at a flow rate of 0.52 ml./min. Detection was by UV at 354 μm. Samples were dissolved at a concentration of 1 mg./ml. in the mobile phase, 2 μ were injected and BL-S640 was eluted at 18 min. and the aldehyde at 6 min. The quantitation of BL-S640 and 5-formylfuransulfonic acid were made using p-toluene-sulfonic acid as an internal standard.

[22] = test system: P. mirabilis A9900; experiment: Oral PD50 in mice; type: in vivo; details: Proteus mirabilis, A9900, po, 3.5 h, oral; mice treated at 1 and 3.5 hours post-challenge; read-out: PD50

O=C(O)C1=C(CSc2cnn[nH]2)CS[C@@H]2[C@H](N3C(=O)[C@@H](c4ccc(O)cc4)NC3c3ccccc3S(=O)(=O)O)C(=O)N12 (stereo partly shown) [BL-S1055]
concentration at 0.5 h ([1]; 0.5 hr): 38200 ng/mL
concentration at 1 h ([1]; 1 hr): 35700 ng/mL
concentration at 2 h ([1]; 2 hr): 22000 ng/mL
concentration at 3.5 h ([1]; 3.5 hr): 11300 ng/mL
dose excreted at 6 h ([2]; 0-6 hr): 36.6%
dose excreted at 24 h ([2]; 0-24 hr): 39%
dose excreted at 24 h ([2]; 6-24 hr): 2.4%
Hydrolysis to the parent compound (BL-S640) [3]: complete hydrolysis
concentration at 0.25 h ([4]; 0.25 hr): 10300 ng/mL
concentration at 0.5 h ([4]; 0.5 hr): 9900 ng/mL
concentration at 1 h ([4]; 1 hr): 7600 ng/mL
concentration at 1.5 h ([4]; 1.5 hr): 6500 ng/mL
ED50 [5]: 1.6 mg/kg
MIC [6]: 0.016 µg/mL
MIC [7]: 0.06 µg/mL
MIC [8]: 63 µg/mL (≈ 99.9 µM)
MIC [9]: 0.5 µg/mL (≈ 0.793 µM)
MIC [10]: 0.35 µg/mL (≈ 0.555 µM)
MIC [11]: 0.5 µg/mL (≈ 0.793 µM)
MIC ([12]; BX1633A9606, inoculum 10^-2): 2 µg/mL (≈ 3.17 µM)
MIC ([12]; BX1633A9606, inoculum 10^-3): 0.5 µg/mL (≈ 0.793 µM)
MIC [13]: 125 µg/mL (≈ 198 µM)
MIC [14]: 125 µg/mL (≈ 198 µM)
MIC [15]: 32 µg/mL (≈ 50.7 µM)
MIC [16]: > 125 µg/mL
MIC [17]: 4 µg/mL (≈ 6.34 µM)
MIC [18]: 1 µg/mL (≈ 1.59 µM)
MIC [19]: 0.5 µg/mL (≈ 0.793 µM)
MIC [20]: 1 µg/mL (≈ 1.59 µM)
% Free BL-S640 by liquid chromatography [21]: 64.0%
ED50 [22]: 8.2 mg/kg
